According to PubChem BioAssay AID256 (DTP/NCI, 2004):
Inconclusive results and toxic doses are left out.

System: CD2F1 mice, L1210 leukemia ip, survival T/C
Test: NCI In Vivo Anticancer Drug Screen. Data for tumor model L1210 Leukemia (intraperitoneal) in CD2F1 (CDF1) mice
Settings: higher = longer survival
How it was run: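 Compound-dosed mice with transplantable tumor versus matched vehicle controls; endpoint ratio T/C reported.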

[1] = endpoint: mean survival time, dose: 50.0 mg/kg/injection, schedule: Q01DX009 (ip), vehicle: saline with Tween-80
[2] = endpoint: mean survival time, dose: 100.0 mg/kg/injection, schedule: Q01DX009 (ip), vehicle: saline with Tween-80
[3] = endpoint: mean survival time, dose: 200.0 mg/kg/injection, schedule: Q01DX009 (ip), vehicle: saline with Tween-80
[4] = endpoint: mean survival time, dose: 400.0 mg/kg/injection, schedule: Q01DX009 (ip), vehicle: saline with Tween-80
[5] = endpoint: mean survival time, dose: 75.0 mg/kg/injection, schedule: Q04DX003 (ip), vehicle: saline
[6] = endpoint: mean survival time, dose: 150.0 mg/kg/injection, schedule: Q04DX003 (ip), vehicle: saline
[7] = endpoint: mean survival time, dose: 300.0 mg/kg/injection, schedule: Q04DX003 (ip), vehicle: saline
[8] = endpoint: mean survival time, dose: 100.0 mg/kg/injection, schedule: Q04DX003 (ip), vehicle: saline with Tween-80
[9] = endpoint: mean survival time, dose: 200.0 mg/kg/injection, schedule: Q04DX003 (ip), vehicle: saline with Tween-80
[10] = endpoint: mean survival time, dose: 400.0 mg/kg/injection, schedule: Q04DX003 (ip), vehicle: saline with Tween-80

Structure (SMILES): COC(=O)Nc1ccc(C)cc1[N+](=O)[O-]
- T/C (endpoint: mean survival time, dose: 100.0 mg/kg/injection, schedule: Q04DX003 (ip), vehicle: other): 106 % of control
- T/C (endpoint: mean survival time, dose: 200.0 mg/kg/injection, schedule: Q04DX003 (ip), vehicle: other): 106 % of control
- T/C (endpoint: mean survival time, dose: 400.0 mg/kg/injection, schedule: Q04DX003 (ip), vehicle: other): 109 % of control

Structure (SMILES): O=CC1C(=O)Nc2ccccc21 (stereo unspecified)
- T/C [1]: 96 % of control
- T/C [2]: 96 % of control
- T/C [3]: 104 % of control

Structure (SMILES): NCCSCC(N)C(=O)O (stereo unspecified)
- T/C (endpoint: mean survival time, dose: 50.0 mg/kg/injection, schedule: Q01DX009 (ip), vehicle: saline): 100 % of control
- T/C (endpoint: mean survival time, dose: 100.0 mg/kg/injection, schedule: Q01DX009 (ip), vehicle: saline): 100 % of control
- T/C (endpoint: mean survival time, dose: 200.0 mg/kg/injection, schedule: Q01DX009 (ip), vehicle: saline): 104 % of control

Structure (SMILES): c1ccc2c[n+]3cc4ccccc4cc3cc2c1
- T/C (endpoint: mean survival time, dose: 12.5 mg/kg/injection, schedule: Q04DX003 (ip), vehicle: saline): 104 % of control
- T/C (endpoint: mean survival time, dose: 25.0 mg/kg/injection, schedule: Q04DX003 (ip), vehicle: saline): 97 % of control

Structure (SMILES): CN(C)CCC(C#N)(c1ccccc1)c1ccccc1
- T/C (endpoint: mean survival time, dose: 75.0 mg/kg/injection, schedule: Q01DX001 (ip), vehicle: saline): 102 % of control
- T/C (endpoint: mean survival time, dose: 150.0 mg/kg/injection, schedule: Q01DX001 (ip), vehicle: saline): 100 % of control

Structure (SMILES): Cc1ccc2[nH]c3c(c2c1)CSCC3
- T/C [2]: 104 % of control
- T/C [3]: 102 % of control
- T/C [4]: 102 % of control

Structure (SMILES): Cc1cccc([N+](=O)[O-])c1-c1ccccc1C(=O)O
- T/C (endpoint: mean survival time, dose: 100.0 mg/kg/injection, schedule: Q01DX001 (ip), vehicle: Klucel (hydroxypropylcellulose) (HPC)): 101 % of control
- T/C (endpoint: mean survival time, dose: 200.0 mg/kg/injection, schedule: Q01DX001 (ip), vehicle: Klucel (hydroxypropylcellulose) (HPC)): 101 % of control
- T/C (endpoint: mean survival time, dose: 400.0 mg/kg/injection, schedule: Q01DX001 (ip), vehicle: Klucel (hydroxypropylcellulose) (HPC)): 101 % of control

Structure (SMILES): N#CSCc1ccc(CSC#N)c(Br)c1
- T/C [5]: 102 % of control
- T/C [6]: 98 % of control
- T/C [7]: 101 % of control

Structure (SMILES): CC(=O)OC1CCC2C3CCC4=C(Cl)C(=O)CCC4C3CCC12C (stereo unspecified)
- T/C (endpoint: mean survival time, dose: 100.0 mg/kg/injection, schedule: Q04DX003 (sc), vehicle: steriod suspending solution): 98 % of control
- T/C (endpoint: mean survival time, dose: 200.0 mg/kg/injection, schedule: Q04DX003 (sc), vehicle: steriod suspending solution): 97 % of control
- T/C (endpoint: mean survival time, dose: 400.0 mg/kg/injection, schedule: Q04DX003 (sc), vehicle: steriod suspending solution): 106 % of control

Structure (SMILES): CS(C)(O)NC(N)=O
- T/C (endpoint: median survival time, dose: 25.0 mg/kg/injection, schedule: Q01DX009 (ip), vehicle: water): 93 % of control
- T/C (endpoint: median survival time, dose: 50.0 mg/kg/injection, schedule: Q01DX009 (ip), vehicle: water): 103 % of control
- T/C (endpoint: median survival time, dose: 100.0 mg/kg/injection, schedule: Q01DX009 (ip), vehicle: water): 102 % of control
- T/C (endpoint: median survival time, dose: 200.0 mg/kg/injection, schedule: Q01DX009 (ip), vehicle: water): 91 % of control
- T/C (endpoint: median survival time, dose: 400.0 mg/kg/injection, schedule: Q01DX009 (ip), vehicle: water): 101 % of control

Structure (SMILES): CCOC(=O)c1ccc(Nc2nnc(-c3c(OC)cc(OC)cc3OC)s2)cc1
- T/C (endpoint: mean survival time, dose: 25.0 mg/kg/injection, schedule: Q01DX009 (ip), vehicle: saline with Tween-80): 88 % of control
- T/C [1]: 88 % of control
- T/C [2]: 89 % of control
- T/C [3]: 88 % of control
- T/C [4]: 88 % of control

Structure (SMILES): O=C(O)c1ccc([N+](=O)[O-])cc1Br
- T/C (endpoint: mean survival time, dose: 100.0 mg/kg/injection, schedule: Q04DX002 (ip), vehicle: saline with Tween-80): 96 % of control
- T/C (endpoint: mean survival time, dose: 200.0 mg/kg/injection, schedule: Q04DX002 (ip), vehicle: saline with Tween-80): 107 % of control
- T/C (endpoint: mean survival time, dose: 400.0 mg/kg/injection, schedule: Q04DX002 (ip), vehicle: saline with Tween-80): 100 % of control

Structure (SMILES): O=C(c1ccc2ccccc2c1O)N1CCCCC1
- T/C [8]: 101 % of control
- T/C [9]: 103 % of control
- T/C [10]: 101 % of control

Structure (SMILES): CCCCC(C(=O)OCC)C(=O)c1ccccc1 (stereo unspecified)
- T/C [8]: 96 % of control
- T/C [9]: 94 % of control
- T/C [10]: 97 % of control

Structure (SMILES): COC(=O)c1cn[nH]c1/N=N/N(C)C
- T/C (endpoint: mean survival time, dose: 88.0 mg/kg/injection, schedule: Q01DX009 (ip), vehicle: other): 175 % of control
- T/C (endpoint: mean survival time, dose: 133.0 mg/kg/injection, schedule: Q01DX009 (ip), vehicle: other): 164 % of control
- T/C (endpoint: mean survival time, dose: 300.0 mg/kg/injection, schedule: Q01DX009 (ip), vehicle: other): 88 % of control

Structure (SMILES): OCC1C(CO)C2CC1C1N=NN(c3ccccc3)C21 (stereo unspecified)
- T/C (endpoint: mean survival time, dose: 100.0 mg/kg/injection, schedule: Q01DX001 (ip), vehicle: saline sonified): 102 % of control
- T/C (endpoint: mean survival time, dose: 200.0 mg/kg/injection, schedule: Q01DX001 (ip), vehicle: saline sonified): 100 % of control
- T/C (endpoint: mean survival time, dose: 400.0 mg/kg/injection, schedule: Q01DX001 (ip), vehicle: saline sonified): 100 % of control

Structure (SMILES): O=S1(=O)OCCC1C(O)(c1ccccc1)c1ccccc1 (stereo unspecified)
- T/C (endpoint: mean survival time, dose: 75.0 mg/kg/injection, schedule: Q01DX009 (ip), vehicle: saline): 97 % of control
- T/C [5]: 100 % of control
- T/C (endpoint: mean survival time, dose: 150.0 mg/kg/injection, schedule: Q01DX009 (ip), vehicle: saline): 103 % of control
- T/C [6]: 97 % of control
- T/C (endpoint: mean survival time, dose: 300.0 mg/kg/injection, schedule: Q01DX009 (ip), vehicle: saline): 100 % of control
- T/C [7]: 97 % of control

Structure (SMILES): CS/C([S-])=N/N=C\c1ccccn1.CS/C([S-])=N/N=C\c1ccccn1.[Ni+2]
- T/C [8]: 97 % of control
- T/C [9]: 96 % of control
- T/C [10]: 96 % of control

Structure (SMILES): CCOC(=O)c1cnc2c(cnn2CC)c1NN=C(C)C
- T/C (endpoint: mean survival time, dose: 100.0 mg/kg/injection, schedule: Q04DX003 (ip), vehicle: saline): 105 % of control
- T/C (endpoint: mean survival time, dose: 200.0 mg/kg/injection, schedule: Q04DX003 (ip), vehicle: saline): 105 % of control

Structure (SMILES): CC1(C)CCOC(CC(=O)OCc2ccccc2)=N1
- T/C [2]: 96 % of control
- T/C [8]: 93 % of control
- T/C [3]: 96 % of control
- T/C [9]: 92 % of control
- T/C [4]: 95 % of control
- T/C [10]: 88 % of control

Structure (SMILES): O=C(NCCCCC(NC(=O)OCc1ccccc1)C(=O)ON1C(=O)CCC1=O)OCc1ccccc1 (stereo unspecified)
- T/C (endpoint: mean survival time, dose: 12.5 mg/kg/injection, schedule: Q01DX009 (ip), vehicle: other): 96 % of control
- T/C (endpoint: mean survival time, dose: 25.0 mg/kg/injection, schedule: Q01DX009 (ip), vehicle: other): 86 % of control
- T/C (endpoint: mean survival time, dose: 50.0 mg/kg/injection, schedule: Q01DX009 (ip), vehicle: other): 90 % of control
- T/C (endpoint: mean survival time, dose: 100.0 mg/kg/injection, schedule: Q01DX009 (ip), vehicle: other): 94 % of control
- T/C (endpoint: mean survival time, dose: 200.0 mg/kg/injection, schedule: Q01DX009 (ip), vehicle: other): 97 % of control

Structure (SMILES): O=[N+]([O-])c1ccc2c(c1)-c1ccccc1/C2=N\O
- T/C (endpoint: mean survival time, dose: 50.0 mg/kg/injection, schedule: Q01DX001 (ip), vehicle: carboxymethylcellulose (CMC)): 98 % of control
- T/C (endpoint: mean survival time, dose: 100.0 mg/kg/injection, schedule: Q01DX001 (ip), vehicle: carboxymethylcellulose (CMC)): 104 % of control
- T/C (endpoint: mean survival time, dose: 200.0 mg/kg/injection, schedule: Q01DX001 (ip), vehicle: carboxymethylcellulose (CMC)): 111 % of control
- T/C (endpoint: mean survival time, dose: 400.0 mg/kg/injection, schedule: Q01DX001 (ip), vehicle: carboxymethylcellulose (CMC)): 104 % of control

Structure (SMILES): CCCCOc1ccccc1NC(=O)CCl
- T/C [2]: 97 % of control
- T/C [3]: 92 % of control
- T/C [4]: 95 % of control

Structure (SMILES): O=C(O)/C=C/C(=O)Nc1cc2c(cc1Br)-c1ccccc1C2O (stereo unspecified)
- T/C [8]: 100 % of control
- T/C [9]: 102 % of control
- T/C [10]: 94 % of control

Structure (SMILES): CN(C)c1n[nH]c(N)n1
- T/C (endpoint: mean survival time, dose: 76.0 mg/kg/injection, schedule: Q04DX003 (ip), vehicle: saline): 97 % of control
- T/C (endpoint: mean survival time, dose: 115.0 mg/kg/injection, schedule: Q04DX003 (ip), vehicle: saline): 101 % of control
- T/C (endpoint: mean survival time, dose: 174.0 mg/kg/injection, schedule: Q04DX003 (ip), vehicle: saline): 104 % of control
- T/C (endpoint: mean survival time, dose: 264.0 mg/kg/injection, schedule: Q04DX003 (ip), vehicle: saline): 103 % of control
- T/C (endpoint: mean survival time, dose: 400.0 mg/kg/injection, schedule: Q04DX003 (ip), vehicle: saline): 105 % of control

Structure (SMILES): CC(=O)C1CCC2c3cc4c(c(C)c3CCC12C)CCC(OC(=O)C1CCCCC1)C4 (stereo unspecified)
- T/C [8]: 101 % of control
- T/C [9]: 101 % of control
- T/C [10]: 104 % of control

Structure (SMILES): C1=C(c2ccccc2)NCC1c1ccccc1 (stereo unspecified)
- T/C (endpoint: mean survival time, dose: 100.0 mg/kg/injection, schedule: Q01DX001 (ip), vehicle: saline with Tween-80): 94 % of control
- T/C (endpoint: mean survival time, dose: 200.0 mg/kg/injection, schedule: Q01DX001 (ip), vehicle: saline with Tween-80): 86 % of control
- T/C (endpoint: mean survival time, dose: 400.0 mg/kg/injection, schedule: Q01DX001 (ip), vehicle: saline with Tween-80): 89 % of control

Structure (SMILES): NC(=O)C1CCCCC1C(N)=O (stereo unspecified)
- T/C [2]: 105 % of control
- T/C [3]: 105 % of control
- T/C [4]: 103 % of control
